Here are results for 1 compound from patent US20220267365A1, “NOVEL PHOSPHATE ESTER COMPOUND HAVING PYRROLOPYRIMIDINE SKELETON OR PHARMACEUTICALLY ACCEPTABLE SALT THEREOF” (TAIHO PHARMACEUTICAL CO., LTD., priority 2019, published 2022).

Each structure is given as a SMILES string. pIC50: −log10 of the molar value.

Format in all cases: cell-based
In one assay the test system is H2122. Put plainly: Test Example 4 growth suppression activity, CellTiter-Glo. The settings on record: NCI-H2122, 72 h; H2122, Human lung cancer, 3 days. How it is done:
(§1) Human tumor cell lines different in type were suspended in mediums, seeded in individual wells of a multi-well plate and cultured. On the day after initiation of culture, serially diluted solutions of a compound were added. Culture was carried out for further 3 days. Cells were counted by a CellTiter-Glo (manufactured by Promega KK) in accordance with the protocol recommended by Promega KK. Cell viability was calculated in accordance with the equation shown below and the concentration (IC50 (nM)) of the compound at which 50% of cell growth is inhibited was obtained.
(§2) Cell viability (%)=(T/C)×100
(§3) T: Intensity of light emitted from a well containing a compound
(§4) C: Intensity of light emitted from a well containing no compound
(In general: ATP-based viability assays read luminescence as a measure of living cells.)

In the next assay the test system is A431. The assay is described as above. Particulars: A-431, 72 h; A431, Human epidermoid carcinoma, 3 days. The protocol:
as §1, §2, §3, §4

The test system of another assay is SK-BR-3. The description is as above. Particulars: 72 h; SK-BR-3, Human breast cancer, 3 days. How it is done: as §1, §2, §3, §4
Another assay concerns H1650. The description is as above. The settings on record: NCI-H1650, 72 h; H1650, Human lung cancer, 3 days. The protocol: as §1, §2, §3, §4
The subject of a further assay is HCC827. The assay is described as above. The settings on record: 72 h; HCC827, Human lung cancer, 3 days. The protocol: as §1, §2, §3, §4
The test system of the next assay is H358. The description is as above. Particulars: NCI-H358, 72 h; H358, Human lung cancer, 3 days. How it is done: as §1, §2, §3, §4
The test system of the next assay is A549. The description is as above. The settings on record: 72 h; A549, Human lung cancer, 3 days. How it is done:
as §1, §2, §3, §4

Assay [1] has as its system human brain tumor cell line (U-87 MG). Put plainly: Test Example 9: combinational effect of compound and temozolomide (TMZ), crystal violet cell viability. The settings on record: any order (same-day, compound first, TMZ first), Student's t-test. The protocol: A human brain tumor cell line (U-87 MG) was suspended in a medium, seeded in individual wells of a multi-well plate and cultured. In the case where two compounds are simultaneously added, both compounds were added on two days after initiation of culture. In the case where addition of the compound of the present invention preceded, a serially diluted solution of the compound was added on the day after initiation of culture and a serially diluted solution of TMZ was added two days after initiation of culture. In the case where addition of TMZ preceded, a serially diluted solution of TMZ was added on the day after initiation of culture and a serially diluted solution of the compound was added on two days after initiation of culture. Day 5 after seeding, cells were fixed with a 25% aqueous solution of glutaraldehyde and stained with a staining fluid (0.05 w/v % crystal violet in 20% methanol). After an extract (0.1 N NaH2PO4:100% ethanol=1:1) was added and stirred, an absorbance at 540 nm was measured to obtain a cell count. The cell viability was calculated in accordance with the following equation and statistically processed in accordance with a Student's t-test.
as §2
T: Absorbance of a well containing TMZ or a compound
C: Absorbance of a well containing neither TMZ nor a compound

Assay [2] shares this test system. The assay can be described thus: Test Example 8: combination use of compound and radiation, crystal violet cell viability. The settings on record: any order (same-day, compound first, radiation first), Student's t-test. How it is done:
A human brain tumor cell line (U-87 MG) was suspended in a medium, seeded in individual wells of a multi-well plate and cultured. In the case where radiation exposure and addition of a compound are simultaneously carried out, both treatments were carried out on two days after initiation of culture. In the case where addition of a compound preceded radiation exposure, a serially diluted solution of a compound was added on the day after initiation of culture and radiation exposure was carried out on two days after initiation of culture. In the case where radiation exposure preceded addition of a compound, radiation exposure was carried out on the day after initiation of culture and a serially diluted solution of a compound was added on the two days after initiation of culture. Day 5 after seeding, cells were fixed with a 25% aqueous solution of glutaraldehyde and stained with a staining fluid (0.05 w/v % crystal violet in 20% methanol). After an extract (0.1 N NaH2PO4: 100% ethanol=1:1) was added and stirred, an absorbance at 540 nm was measured to obtain a cell count. The cell viability was calculated in accordance with the following equation and statistically processed in accordance with a Student's t-test.
as §2
T: Absorbance of a well exposed to radiation or containing a compound
C: Absorbance of a well neither exposed to radiation nor containing a compound

As usually defined, the pIC50 is −log10 of the IC50, conventionally taken in molar units. A high value points to a low IC50.

In the case of `Nc1ncnc2c1c(I)cn2[C@@H]1O[C@H](CO)[C@@H](O)[C@@H]1F` [Comparative Example 2, (2R,3R,4S,5R)-5-(4-amino-5-iodo-7H-pyrrolo[2,3-d]pyrimidin-7-yl)-4-fluoro-2-(hydroxymethyl) tetrahydrofuran-3-ol], the pIC50 with H2122 is 8.05; with A431, 7.74; with SK-BR-3, 7.64; with H1650, 8.10; in the assay with HCC827, 6.75; in the assay on H358, 7.28. In the assay on A549, this compound had a pIC50 of 7.85. The “cell viability, combination treatment with TMZ compared to the single treatments” value in [1] is given as “significant decrease”. The “cell viability, combination treatment with radiation exposure compared to the single treatments” value in assay [2] is “significantly decreased”.
